Consider 3 compounds from US20110207751A1, “HETEROCYCLIC COMPOUNDS AND USES AS ANTICANCER AGENTS” (priority 2010, published 2011).

Type in all cases: cell-based
Experiment [1] concerns A549 cells (human lung carcinoma cell line). The experiment in a line: Inhibition of cell proliferation, RT-CES cell index. As to conditions: 72 hr post compound treatment, read-out: calculated IC50. The source says: (§1) The biological activity of compounds disclosed herein was monitored and profiled using the Real-Time Cell Electronic Sensing (RT-CES®) system from ACEA Biosciences, Inc. The RT-CES system utilizes cell-substrate impedance technology to monitor cellular behavior inside tissue culture wells in a microtiter plate format. The technology features in the integration of molecular and cell biology with microelectronics and is based on the electronic detection of biological assay process. The details of this cell electronic sensing technology and associated devices, systems and methods of use are described in U.S. Pat. No. 7,167,585; U.S. Pat. No. 7,468,255; PCT publication number WO 2004/010102; U.S. Pat. No. 7,470,533; and U.S. Pat. No. 7,459,303, each of which is incorporated herein by reference. Additional details of RT-CES technology are further disclosed in U.S. Pat. No. 7,468,255.
(§2) For measurement of cell-substrate or cell-electrode impedance using RT-CES technology, microelectrodes having appropriate geometries are fabricated onto the bottom surfaces of microtiter plate or similar device, facing into the wells. […] When there are changes to the biological status of the cells analogue electronic readout signals are measured automatically and in real time, and are converted to digital signals for processing and for analysis. In a RT-CES system, a cell index (arbitrary representation of change in impedance) is automatically derived and provided based on measured electrode impedance values. […]
(§3) To quantify cell status based on the measured cell-electrode impedance, a parameter termed Cell Index is derived. Cell Index is a quantitative measure of the status of the cells in an electrode-containing well. […]
A549 cells (human lung carcinoma cell line) were seeded into wells of 96 well E-plate devices (Roche) with an initial seeding density of 5000 cells per well and were pre-incubated in incubator under standard cell culture condition for about 24 hours. […] The cell status was monitored prior to and after the compound addition using RT-CES system (ACEA Biosciences). […]

Experiment [2] has as its system NCI-H460 cells (human large cell lung carcinoma cell line). The experiment in a line: Inhibition of cell proliferation, xCelligence cell index. The following applies: 72 hr post compound treatment, read-out: calculated IC50.
Text: as §1, §2, §3
NCI-H460 cells (human large cell lung carcinoma cell line) were seeded into wells of 96 well E-plate devices (Roche) with an initial seeding density of 5000 cells per well and were pre-incubated in incubator under standard cell culture condition for about 24 hours. […] The cell status was monitored prior to and after the compound addition using xCelligence system (Roche). […]

In experiment [3] the test system is U118MG cells (human brain cancer cell line). The experiment is described as above. The following applies: U-118-MG, 72 hr post compound treatment, read-out: calculated IC50.
Experiment [4] has as its system HT1080 cells (human connective tissue cancer cell line). The experiment is described as above. As to conditions: HT-1080, 72 hr post compound treatment, read-out: calculated IC50.
Text: The biological activity of compounds disclosed herein was monitored and profiled using the Real-Time Cell Electronic Sensing (RT-CES®) system from ACEA Biosciences, Inc. The RT-CES system utilizes cell-substrate impedance technology to monitor cellular behavior inside tissue culture wells in a microtiter plate format. The technology features in the integration of molecular and cell biology with microelectronics and is based on the electronic detection of biological assay process. […]
as §2, §3

In experiment [5] the test system is B×PC3 cells (human pancreatic cancer cell line). Described as above. The following applies: 72 hr post compound treatment, read-out: calculated IC50.
Text: as §1, §2, §3
B×PC3 cells (human pancreatic cancer cell line) were seeded into wells of 96 well E-plate devices (Roche) with an initial seeding density of 5000 cells per well and were pre-incubated in incubator under standard cell culture condition for about 24 hours. […] The cell status was monitored prior to and after the compound addition using xCelligence system (Roche). […]

Experiment [6] relates to A549 human lung cancer cells. The experiment in a line: Mitotic arrest, phosphohistone H3 staining (mitotic index). As to conditions: 33 nM. The source says: Microtubules are extremely important in the process of mitosis, during which the duplicated chromosomes of a cell are separated into two identical sets before cleavage of the cell into two daughter cells. Compounds which target microtubules such as paclitaxel and vinblastine suppress the microtubule dynamics and block the process of mitosis. As consequence, cells will be arrested at G2/M phase. To test if COMPOUND O influences the process of mitosis in cancer cell dividing, A549 human lung cancer cells were treated with 33 nM of COMPOUND O and paclitaxel, or 0.2% DMSO that served as negative control. The treated cells were stained with an antibody against phosphohistone H3, a marker for cells undergoing mitosis and mitotic arrest. […] It was 44±8%, 45±3% and 3±1% for paclitaxel, COMPOUND O and DMSO treated A549, respectively.

As usually defined, the IC50 is the concentration that inhibits the measured activity by half.

Counter-ions that a name gives are not always drawn.

`CCc1ccc(Nc2nc(-c3c(C)nc4sccn34)cs2)cc1` [COMPOUND O, 2-(4-ethylphenyl)amino-4-(6-methylimidazo[2,1-b]thiazol-5-yl)-thiazole monohydrobromide]: the half-inhibitory concentration (IC50) in experiment [1] was 10.9 nM; in experiment [2], 10.9 nM; in experiment [3], 13.1 nM; in experiment [4], 7.63 nM; in experiment [5], 6.6 nM. The compound also registered a mitotic index in experiment [6] of 45±3%.

Regarding `CC(=O)O[C@H]1C(=O)[C@@]2(C)[C@H]([C@H](OC(=O)c3ccccc3)[C@]3(O)C[C@H](OC(=O)[C@H](O)[C@@H](NC(=O)c4ccccc4)c4ccccc4)C(C)=C1C3(C)C)[C@]1(OC(C)=O)CO[C@@H]1C[C@@H]2O` [paclitaxel], the 50% inhibitory concentration (IC50) in experiment [1] was 5.3 nM; in experiment [2], 2.68 nM; in experiment [3], 12.3 nM; in experiment [5], 8.86 nM. This compound showed a mitotic index in experiment [6] of 44±8%.

Consider `CC[C@]1(O)C[C@H]2CN(CCc3c([nH]c4ccccc34)[C@@](C(=O)OC)(c3cc4c(cc3OC)N(C=O)[C@H]3[C@@](O)(C(=O)OC)[C@H](OC(C)=O)[C@]5(CC)C=CCN6CC[C@]43[C@@H]65)C2)C1` [vincristine], for which the 50% inhibitory concentration (IC50) in experiment [1] was 61.8 nM; in experiment [2], 10.4 nM; in experiment [3], 4.31 nM; in experiment [4] it was 2.01 nM; in experiment [5] it was 4.06 nM.
